{"source": "patent US20230233500A1", "about": "“Gasdermin D (GSDMD) Succination for the Treatment of Inflammatory Disease” (University of Massachusetts, priority 2020, published 2023)", "key": {"human THP1": {"tested_on": "human THP1", "assay": "LPS-Nig induced cell death and LDH release in THP1 cells", "assay_type": "cell-based", "details": "PMA-differentiated THP1, fumarate 25 μM; for LPS-Nig induced cell death: SYTOX Orange", "procedure": "(§1) FIGS. 6A-G. Fumarate inhibits pyroptosis in Human cells. (A-B) Representative images (A) and kinetic data (B) of SYTOX Orange and Hoechst-stained PMA-differentiated THP1 cells treated with LPS for 2 hours, DMSO (vehicle) or fumarate (25 μM) for 1 hour and nigericin (10 μM) for 6 hours. (C) LDH release from (A). (D-E) Kinetic cell death data of SYTOX Orange and Hoechst stained (D) or LDH assay of conditioned medium from primary CD14+ positive monocytes treated with LPS for 2 hours DMSO (vehicle) or fumarate (25 μM) for 1 hour and nigericin (10 μM) for 6 hours. (F) LC/MS quantification of fumarate in WT BMDMs treated with LPS for 2 hours, FHIN1 for 1 hour and nigericin for 1 hour. (G) Representative images of WT primary BMDMs stained with SYTOX Orange and Hoechst following treatment with LPS for 2 hours, DMSO (vehicle) or fumarate (25 μM) or FHIN1 (25 μM) for 1 hour and nigericin for a timecourse of 6 hours. A, B, D, G are representative of 3 independent experiments. C, E, F are pooled data from 3 independent experiments. ***, P<0.001, ****, P<0.00001 (Students t-test). Error bars show mean±SD (B, D) or SEM (C, E). Human kidney cell line HEK293T was cultured in Dulbecco's modified Eagle's medium supplemented with 10% (v/v) fetal bovine serum, 100 U/ml penicillin and 100 µg/ml streptomycin. Human peripheral blood monocyte cell line, THP1 cells were cultured in RPMI-1640 medium supplemented with 10% (v/v) fetal bovine serum, 100 U/ml penicillin and 100 µg/ml streptomycin. For isolation of BMDMs, tibias and femurs were removed from wild type and GsdmD^−/− mice and bone marrow was flushed with complete DMEM-medium. Cells were plated in medium containing 20% (v/v) conditioned medium of L929 mouse fibroblasts cultured for 7 days at 37° C. in a humidified atmosphere of 5% C02. Medium was replaced every 3 days. Cells were plated, treated and incubated in phenol red free medium. Following treatment medium was collected and assessed for LDH release using the CytoTox96 non-radioactive cytotoxicity assay (Promega) as per manufacturer's instructions. […]"}, "m.GSDMD": {"target": "T1, m.GSDMD (Mus musculus, UniProt Q9D8T2)", "T1 sequence (Q9D8T2 1-487)": "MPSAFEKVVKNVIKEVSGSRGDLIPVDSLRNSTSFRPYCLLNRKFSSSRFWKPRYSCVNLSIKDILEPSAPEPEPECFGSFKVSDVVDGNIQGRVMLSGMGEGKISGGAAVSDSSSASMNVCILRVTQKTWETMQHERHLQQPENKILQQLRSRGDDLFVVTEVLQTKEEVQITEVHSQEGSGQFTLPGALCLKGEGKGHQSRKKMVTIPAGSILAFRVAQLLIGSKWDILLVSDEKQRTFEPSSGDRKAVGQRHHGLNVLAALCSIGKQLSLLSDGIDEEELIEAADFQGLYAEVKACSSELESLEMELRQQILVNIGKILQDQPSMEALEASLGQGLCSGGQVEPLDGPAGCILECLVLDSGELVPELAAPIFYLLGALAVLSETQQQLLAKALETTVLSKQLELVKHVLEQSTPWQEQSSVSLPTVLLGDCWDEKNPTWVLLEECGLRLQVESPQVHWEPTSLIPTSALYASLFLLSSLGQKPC", "assay": "In vitro succination reaction with LC-MS/MS peptide mapping", "assay_type": "binding", "details": "recombinant m.GSDMD"}, "[1]": {"tested_on": "Mefv^V726/V726 mouse model", "assay": "Familial Mediterranean Fever Mefv V726/V726 mouse model", "assay_type": "in vivo", "details": "for weight (weight loss / weight gain): diet containing dimethyl fumarate (100 mg/kg/day; 0.1% DMF) for 6 weeks; for GSDMD-N (GsdmD-p30) formation in spleen: immunoblot", "procedure": "FIGS. 15A-E. Fumarate alleviates FMF. (A-D) Weight gain (A), spleen weight (B), ELISA of serum IL-1B and immunoblot of spleen GSDMD (D) liver H&E (E) from Mefv726/726 receiving vehicle diet or a diet containing dimethyl fumarate (100 mg/kg/day) for 6 weeks. Data points indicative of individual mice. *, P<0.05 ***, P<0.001 (t-test or Two-way ANOVA). Error bars show means±SEM.\nAll animal experiments were approved by the Institutional Animal Care Use Committees at the University of Massachusetts Medical School. Animal were kept in specific pathogen free (SPF) environment. Male and female C57/BL6 and Gsdmd−/− mice were used. Gsdmd−/− mice were generated as previously described (22). MefvV726/V726 mice were a gift from Prof. Daniel Kastner (23). Sample sizes used are in line with other similar published studies. All animals were used at age 8-12 weeks.\nDMF embedded mouse diet was formulated by Lab Diets®. DMF was added to a base diet of laboratory lab diet 5001 at a dose 100 mg/kg/day of consumption. Mice received the control base diet or the DMF containing diet for 6 weeks."}, "CD14+ monocytes": {"tested_on": "CD14+ monocytes", "assay": "LPS-Nig induced cell death and LDH release in primary CD14+ monocytes", "assay_type": "cell-based, human", "details": "fumarate 25 μM", "procedure": "as §1, with “E).” for “E). Human kidney cell line HEK293T was cultured in Dulbecco's modified Eagle's medium supplemented with 10% (v/v) fetal bovine serum, 100 U/ml penicillin and 100 µg/ml streptomycin. Human peripheral blood monocyte cell line, THP1 cells were cultured in RPMI-1640 medium supplemented with 10% (v/v) fetal bovine serum, 100 U/ml penicillin and 100 µg/ml streptomycin. For isolation of BMDMs, tibias and femurs were removed from wild type and GsdmD^−/− mice and bone marrow was flushed with complete DMEM-medium. Cells were plated in medium containing 20% (v/v) conditioned medium of L929 mouse fibroblasts cultured for 7 days at 37° C. in a humidified atmosphere of 5% C02. Medium was replaced every 3 days.”"}, "[2]": {"details": "diet containing dimethyl fumarate for 6 weeks"}, "[3]": {"details": "diet containing dimethyl fumarate for 6 weeks, listed as DMF"}}, "note": "Counter-ions that a name gives are not always drawn."}
{"smiles": "COC(=O)/C=C/C(=O)OC", "note": "[Fumarate, Dimethyl fumarate]", "values": [{"measurement": "LPS-Nig induced LDH release", "setting": "human THP1", "result": "blocked"}, {"measurement": "LPS-Nig induced cell death", "setting": "human THP1", "result": "blocked"}, {"measurement": "LPS-Nig induced cell death", "setting": "human THP1; listed as fumarate", "result": "inhibited cell death"}, {"measurement": "In vitro cysteine succination sites", "setting": "m.GSDMD", "result": "same cysteines"}, {"measurement": "weight (weight loss / weight gain)", "setting": "[1]", "result": "alleviated"}, {"measurement": "weight (weight loss / weight gain)", "setting": "[1]; listed as DMF", "result": "increased weight"}, {"measurement": "IL-1β secretion (serum)", "setting": "[1]; [2]", "result": "alleviated"}, {"measurement": "spleen size (splenomegaly)", "setting": "[1]; [2]", "result": "alleviated"}, {"measurement": "liver pathology", "setting": "[1]; diet containing dimethyl fumarate for 6 weeks, H&E", "result": "alleviated"}, {"measurement": "GSDMD-N (GsdmD-p30) formation in spleen", "setting": "[1]; [2]", "result": "alleviated"}, {"measurement": "GSDMD-N (GsdmD-p30) formation in spleen", "setting": "[1]; [3]", "result": "reduced levels"}, {"measurement": "spleen size (splenomegaly)", "setting": "[1]; [3]", "result": "reduced spleen size"}, {"measurement": "fibrosis of liver and lung", "setting": "[1]; diet including 0.1% DMF", "result": "reduction in fibrosis"}, {"measurement": "runting", "setting": "[1]; diet including 0.1% DMF", "result": "rescue of runting"}, {"measurement": "LPS-Nig induced LDH release", "setting": "CD14+ monocytes", "result": "blocked"}, {"measurement": "LPS-Nig induced cell death", "setting": "CD14+ monocytes; SYTOX Orange", "result": "blocked"}]}
